Laboratory results published in patent publication US8778871B2 (Takeda Pharmaceutical Company Limited, priority 2004, dated 2014).
Non-standard residues stand in square brackets, D forms with d. Primed or numbered codes have the meaning given here. No end group written: not given here. *: point of attachment. NMeW = CN[C@@H](Cc1c[nH]c2ccccc12)C(=O)O; Phe(4-F) = N[C@@H](Cc1ccc(F)cc1)C(=O)O; 2Nal = N[C@@H](Cc1ccc2ccccc2c1)C(=O)O; Arg(Me) = CNC(=N)NCCC[C@H](N)C(=O)O; Tic = O=C(O)[C@@H]1Cc2ccccc2CN1; Cha = N[C@@H](CC1CCCCC1)C(=O)O; Adipoyl′ = not defined here; Orn = NCCC[C@H](N)C(=O)O; Propionyl = CCC(=O)*; azaGly = NNC(=O)O

Columns and labels:
hOT7T175 = biological target: T1, hOT7T175 (Homo sapiens, UniProt Q969F8, L364H); format: cell-based; settings: hOT7T175/CHO, FLIPR, evaluation for 40 seconds after initiation of the reaction
T1 construct: expressed in transfected cells
T1 sequence (Q969F8 whole entry L364H): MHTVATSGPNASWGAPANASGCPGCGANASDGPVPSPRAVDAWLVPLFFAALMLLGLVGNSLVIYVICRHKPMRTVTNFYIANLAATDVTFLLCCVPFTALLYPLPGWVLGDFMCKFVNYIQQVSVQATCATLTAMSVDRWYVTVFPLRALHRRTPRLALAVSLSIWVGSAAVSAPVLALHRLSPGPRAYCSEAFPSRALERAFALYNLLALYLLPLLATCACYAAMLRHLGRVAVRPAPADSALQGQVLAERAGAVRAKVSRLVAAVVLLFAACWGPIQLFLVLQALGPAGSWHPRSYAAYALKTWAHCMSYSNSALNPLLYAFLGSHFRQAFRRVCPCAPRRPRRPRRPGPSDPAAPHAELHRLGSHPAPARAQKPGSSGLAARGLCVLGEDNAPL
Description: The intracellular Ca ion level-increasing activity was measured using FLIPR as in TEST EXAMPLE 2.

[1] = Action of reducing testosterone level in blood in mature male rat (1 mM peptide in 50% DMSO, ALZET osmotic pump); format: in vivo; settings: 1 mM peptide in 50% DMSO aqueous solution, ALZET osmotic pump s.c., six days
Description: The peptide was encapsulated in five ALZET osmotic pump (Model 2001, 0.2 ml of volume, releasing rate 0.001 ml/hr, DURECT Corporation). The ALZET pumps encapsulated with the peptide solution were implanted to dorsal subcutaneous of five male CD (SD) IGS rat at nine weeks age (Charles River Japan, Inc.) anesthesized with ether for one pump to one rat. Separately, for negative controls, the ALZET osmotic pumps encapsulated with distilled water were implanted to five male CD (SD) IGS rat (Charles River Japan, Inc.) The rats were bred for six days under the normal conditions. After weighing, blood was collected by decapitation. To 1 ml of blood, 0.03 ml of aprotinin (Trasylol, Byer) solution containing 0.1 g/ml EDTA 2Na was added. The plasma was isolated by centrifugation at 1,800×g for 25 minutes and collected. The thus obtained plasma, 0.05 ml was effected by radioimmunoassay. (DPC Total Testosterone Kit, Diagnostic Products Corporation) to measure testosterone level in blood of each rat. The value beneath measuring limit of radioimmunoassay (0.04 ng/ml as concentration of plasma) was treated as zero. The mean values for testosterone level of five rats, to which the peptide was given, was calculated and the relative value (percentage) for the mean values of testosterone level of five rats, to which distilled watrer was given, was estimated.

| Substance | Specific Act. (EC50/MS10 EC50) (hOT7T175) | Testosterone level in Blood [1] |
| --- | --- | --- |
| Ac-D-Tyr-NMeTrp-Asn-Thr-Phe-AzaGly-Leu-Arg(Me)-Trp-NH2 (Ac-[dY][NMeW]NTF[azaGly]L[Arg(Me)]W-NH2; SMILES CNC(=N)NCCC[C@H](NC(=O)[C@H](CC(C)C)NC(=O)NNC(=O)[C@H](Cc1ccccc1)NC(=O)[C@@H](NC(=O)[C@H](CC(N)=O)NC(=O)[C@H](Cc1c[nH]c2ccccc12)N(C)C(=O)[C@@H](Cc1ccc(O)cc1)NC(C)=O)[C@@H](C)O)C(=O)N[C@@H](Cc1c[nH]c2ccccc12)C(N)=O) [Compound No. 672] | 2.1 | 2% |
| Ac-[dY][dW]NT[Phe(4-F)][azaGly]L[Arg(Me)]W-NH2 [Compound No. 637] | 0.8 | 2% |
| Ac-[dY][Tic]NTF[azaGly]L[Arg(Me)]W-NH2 [Compound No. 662] | 0.7 | 2% |
| Propionyl-[dY][dW]NTF[azaGly]L[Arg(Me)]W-NH2 [Compound No. 613] | 0.4 | 2% |
| 6-Aminocaproyl-D-Trp-Asn-Thr-Phe-AzaGly-Leu-Arg(Me)-Trp-NH2 ({6‑Aminocaproyl}-[dW]NTF[azaGly]L[Arg(Me)]W-NH2) [Compound No. 674] | 2 | 2% |
| Ac-D-Tyr-D-Pya(3)-Asn-Thr-Phe-AzaGly-Leu-Arg(Me)-Trp-NH2 [Compound No. 660] | 1.1 | 2% |
| Ac-[dL][dW]NTF[azaGly]L[Arg(Me)]W-NH2 [Compound No. 617] | 2.4 | 2% |
| D-Tyr-D-Tyr-D-Trp-Asn-Thr-Phe-AzaGly-Leu-Arg(Me)-Trp-NH2 ([dY][dY][dW]NTF[azaGly]L[Arg(Me)]W-NH2; N-terminus assumed; SMILES CNC(=N)NCCC[C@H](NC(=O)[C@H](CC(C)C)NC(=O)NNC(=O)[C@H](Cc1ccccc1)NC(=O)[C@@H](NC(=O)[C@H](CC(N)=O)NC(=O)[C@@H](Cc1c[nH]c2ccccc12)NC(=O)[C@@H](Cc1ccc(O)cc1)NC(=O)[C@H](N)Cc1ccc(O)cc1)[C@@H](C)O)C(=O)N[C@@H](Cc1c[nH]c2ccccc12)C(N)=O) [Compound No. 650] | 0.6 | 2% |
| Ac-[dY][dW]NTF[azaGly]L[Arg(Me)][Cha]-NH2 [Compound No. 595] | 11.4 | 3% |
| Ac-[dY][dL]NTF[azaGly]L[Arg(Me)]W-NH2 [Compound No. 626] | 2.1 | 2% |
| Ac-[dY][dW]NTF[azaGly]L[Arg(Me)]Y-NH2 [Compound No. 591] | 1.2 | 2% |
| Ac-[dY][dF]NTF[azaGly]L[Arg(Me)]W-NH2 [Compound No. 627] | 1.6 | 2% |
| Ac-Tyr-D-Tyr-D-Trp-Asn-Thr-Phe-AzaGly-Leu-Arg(Me)-Trp-NH2 (Ac-Y[dY][dW]NTF[azaGly]L[Arg(Me)]W-NH2; SMILES CNC(=N)NCCC[C@H](NC(=O)[C@H](CC(C)C)NC(=O)NNC(=O)[C@H](Cc1ccccc1)NC(=O)[C@@H](NC(=O)[C@H](CC(N)=O)NC(=O)[C@@H](Cc1c[nH]c2ccccc12)NC(=O)[C@@H](Cc1ccc(O)cc1)NC(=O)[C@H](Cc1ccc(O)cc1)NC(C)=O)[C@@H](C)O)C(=O)N[C@@H](Cc1c[nH]c2ccccc12)C(N)=O) [Compound No. 676] | 1.4 | 2% |
| Ac-D-Tyr-D-Tyr-D-Trp-Asn-Thr-Phe-AzaGly-Leu-Arg(Me)-Trp-NH2 (Ac-[dY][dY][dW]NTF[azaGly]L[Arg(Me)]W-NH2; SMILES CNC(=N)NCCC[C@H](NC(=O)[C@H](CC(C)C)NC(=O)NNC(=O)[C@H](Cc1ccccc1)NC(=O)[C@@H](NC(=O)[C@H](CC(N)=O)NC(=O)[C@@H](Cc1c[nH]c2ccccc12)NC(=O)[C@@H](Cc1ccc(O)cc1)NC(=O)[C@@H](Cc1ccc(O)cc1)NC(C)=O)[C@@H](C)O)C(=O)N[C@@H](Cc1c[nH]c2ccccc12)C(N)=O) [Compound No. 651] | 0.7 | 2% |
| Ac-[dF][dW]NTF[azaGly]L[Arg(Me)]W-NH2 [Compound No. 618] | 1.6 | 2% |
| Ac-D-Trp-Asn-Thr-Phe-AzaGly-Leu-Arg(Me)-Trp-NH2 (Ac-[dW]NTF[azaGly]L[Arg(Me)]W-NH2; SMILES CNC(=N)NCCC[C@H](NC(=O)[C@H](CC(C)C)NC(=O)NNC(=O)[C@H](Cc1ccccc1)NC(=O)[C@@H](NC(=O)[C@H](CC(N)=O)NC(=O)[C@@H](Cc1c[nH]c2ccccc12)NC(C)=O)[C@@H](C)O)C(=O)N[C@@H](Cc1c[nH]c2ccccc12)C(N)=O) [Compound No. 666] | 1.1 | 2% |

| Substance | Specific Act. (EC50/MS10 EC50) (hOT7T175) | Testosterone level in Blood [1] |
| --- | --- | --- |
| Ac-[dY][dW]NTF[azaGly]L[Arg(Me)][2Nal]-NH2 [Compound No. 589] | 2.3 | 2% |
| Ac-[dY][dK]NTF[azaGly]L[Arg(Me)]W-NH2 [Compound No. 629] | 3.4 | 2% |
| Ac-[dY][dA]NTF[azaGly]L[Arg(Me)]W-NH2 [Compound No. 625] | 2.8 | 2% |
| Ac-[dY][dW]NTF[azaGly]LRW-NH2 [Compound No. 600] | 0.3 | 2% |
| Ac-D-Tyr-D-Pya(2)-Asn-Thr-Phe-AzaGly-Leu-Arg(Me)-Trp-NH2 [Compound No. 658] | 0.4 | 2% |
| Ac-[dY][dW]NTF[azaGly]V[Arg(Me)]W-NH2 [Compound No. 642] | 3.7 | 2% |
| Adipoyl-D-Trp-Asn-Thr-Phe-AzaGly-Leu-Arg(Me)-Trp-NH2 ({Adipoyl′}-[dW]NTF[azaGly]L[Arg(Me)]W-NH2) [Compound No. 671] | 3.6 | 2% |
| Ac-D-Tyr-D-Pya(4)-Asn-Thr-Phe(4F)-AzaGly-Leu-Arg(Me)-Trp-NH2 [Compound No. 638] | 1.7 | 2% |
| Ac-D-Trp-D-Trp-Asn-Thr-Phe-AzaGly-Leu-Arg(Me)-Trp-NH2 (Ac-[dW][dW]NTF[azaGly]L[Arg(Me)]W-NH2; SMILES CNC(=N)NCCC[C@H](NC(=O)[C@H](CC(C)C)NC(=O)NNC(=O)[C@H](Cc1ccccc1)NC(=O)[C@@H](NC(=O)[C@H](CC(N)=O)NC(=O)[C@@H](Cc1c[nH]c2ccccc12)NC(=O)[C@@H](Cc1c[nH]c2ccccc12)NC(C)=O)[C@@H](C)O)C(=O)N[C@@H](Cc1c[nH]c2ccccc12)C(N)=O) [Compound No. 663] | 0.8 | 2% |
| D-Tyr-D-Pya(4)-Asn-Ser-Phe-AzaGly-Leu-Arg(Me)-PheΨ(CSNH)NH2 [Compound No. 548] | 1.7 | 18% |
| Ac-[dY][dW]NTF[azaGly]L[Arg(Me)][Phe(4-F)]-NH2 [Compound No. 592] | 1.1 | 2% |
| Ac-D-Tyr-D-Trp-Asn-Thr-Phe-AzaGly-Leu-Arg(Me2)sym-Trp-NH2 [Compound No. 608] | 2.2 | 2% |
| Ac-[dY][dW]NTFGL[Arg(Me)]W-NH2 [Compound No. 598] | 0.3 | 2% |
| Ac-Y[dW]NTF[azaGly]L[Arg(Me)]W-NH2 [Compound No. 615] | 0.7 | 2% |
| Ac-[dY][dW]NTF[azaGly]L[Orn]W-NH2 [Compound No. 599] | 0.5 | 2% |
| Ac-D-Tyr-D-Trp-Asn-Thr-Pya(4)-AzaGly-Leu-Arg(Me)-Trp-NH2 [Compound No. 635] | 1.4 | 2% |
